# Measured values taken from patent US8133849B2, “Herbicidal compounds” (Syngenta Limited, priority 2007, dated 2012).
# Legend:
# Test in all cases: Example B2 herbicidal action, post-emergence, pots in glasshouse, damage score 0-10
# Type in all cases: in vivo
# Details in all cases: application post-emergence, rate 1000 g/ha, evaluated after 13 days
# Amaranthus retroflexus = tested on: Amaranthus retroflexus
# In short: (§1)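 Pot-grown plants were sprayed post-emergence at 8 days with active ingredient in aqueous spray derived from acetone/water (50:50) containing 0.5% Tween 20. Glasshouse conditions were 24/16° C day/night, 14 h light and 65% humidity, with watering twice daily. Damage was scored 13 days after spraying.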
# Solanum nigrum = tested on: Solanum nigrum
# In short: as §1
# Echinochloa crus-galli = tested on: Echinochloa crus-galli
# In short: as §1
# Ipomea hederaceae = tested on: Ipomea hederaceae
# In short: as §1
# Setaria faberi = tested on: Setaria faberi
# In short: as §1
SMILES,AMARE damage score (10=total damage to plant; 0=no damage to plant) (Amaranthus retroflexus),SOLNI damage score (10=total damage to plant; 0=no damage to plant) (Solanum nigrum),ECHCG damage score (10=total damage to plant; 0=no damage to plant) (Echinochloa crus-galli),IPOHE damage score (10=total damage to plant; 0=no damage to plant) (Ipomea hederaceae),SETFA damage score (10=total damage to plant; 0=no damage to plant) (Setaria faberi)
CC(C)C(=O)OC1=C(c2ccccc2C(F)(F)F)S(=O)(=O)N(CCCl)c2nccnc21 [Compound C121],0,5,0,1,2
"CCOC(=O)c1ccc(C(F)(F)F)nc1C1=C(OC(=O)SC)c2nccnc2N(CCC(F)F)S1(=O)=O [Compound C139, 2-[1-(3,3-difluoro-propyl)-4-methylsulfanylcarbonyloxy-2,2-dioxo-1,2-dihydro-2-λ-6-thia-1,5,8-triaza-naphthalen-3-yl]-6-trifluoromethyl-nicotinic acid ethyl ester]",0,0,0,1,3
CC(C)C(=O)OC1=C(c2ccccc2OC(F)(F)F)S(=O)(=O)N(CC(F)F)c2nccnc21 [Compound C22],10,10,7,9,4
CC(C)C(=O)OC1=C(c2cc(C(F)(F)F)ccc2Cl)S(=O)(=O)N(CCCl)c2nccnc21 [Compound C123],4,10,2,4,1
CC(C)(C)C(=O)OC1=C(c2ccc(Cl)cc2Cl)S(=O)(=O)N(CC(F)(F)F)c2nccnc21 [Compound C104],10,10,6,9,3
CCN1c2nccnc2C(O)=C(c2cc(C(F)(F)F)ccc2C(F)(F)F)S1(=O)=O [Compound D24],6,10,3,10,1
CCN1c2nccnc2C(O)=C(c2cc(C(F)(F)F)ccc2Cl)S1(=O)=O [Compound D15],9,9,2,9,4
CC(C)C(=O)OC1=C(c2c(Cl)ccc(Cl)c2Cl)S(=O)(=O)N(CC(F)F)c2nccnc21 [Compound C38],9,10,9,10,9
O=[N+]([O-])c1ccccc1C1=C(O)c2nccnc2N(CC(F)F)S1(=O)=O [Compound D32],5,6,0,5,1
CC(C)C(=O)OC1=C(c2cc(C(F)(F)F)ccc2Br)S(=O)(=O)N(CC(F)F)c2nccnc21 [Compound C59],10,10,7,10,3
COCN1c2nccnc2C(OC(=O)C(C)(C)C)=C(c2ccccc2SC(F)(F)F)S1(=O)=O [Compound C23],5,6,4,4,3
CCN1c2nccnc2C(OC(=O)C(C)(C)C)=C(c2cc(Cl)ccc2C(F)(F)F)S1(=O)=O [Compound C108],4,7,3,3,2
CC(C)C(=O)OC1=C(c2c(Cl)ccc(Cl)c2Cl)S(=O)(=O)N(C)c2nccnc21 [Compound C92],6,9,4,9,3
CCSC(=O)OC1=C(c2c(Cl)ccc(OC)c2F)S(=O)(=O)N(CC(F)F)c2nccnc21 [Compound C145],0,8,5,8,2
CCN1c2nccnc2C(OC(=O)C(C)C)=C(c2cc(Cl)ccc2C(F)(F)F)S1(=O)=O [Compound C110],9,8,5,8,4
COCN1c2nccnc2C(OC(=O)C(C)C)=C(c2ccc(Cl)cc2Cl)S1(=O)=O [Compound C27],7,9,3,6,6
CCN1c2nccnc2C(O)=C(c2c(C(F)(F)F)cccc2C(F)(F)F)S1(=O)=O [Compound D43],7,8,3,8,4
C#CCN1c2nccnc2C(OC(=O)C(C)C)=C(c2c(Cl)ccc(Cl)c2C(F)(F)F)S1(=O)=O [Compound C84],9,10,7,8,7
O=S1(=O)C(c2ccccc2I)=C(O)c2nccnc2N1CC(F)F [Compound D44],10,10,9,10,6
CC(C)C(=O)OC1=C(c2ccc(C(F)(F)F)cc2C(F)(F)F)S(=O)(=O)N(CC(F)F)c2nccnc21 [Compound C127],8,10,4,8,2
O=C(OC1=C(c2c(Cl)ccc(Cl)c2Cl)S(=O)(=O)N(CC(F)F)c2nccnc21)Sc1ccccc1 [Compound C126],9,9,7,7,4
CCN1c2nccnc2C(O)=C(c2ccccc2SC(F)(F)F)S1(=O)=O [Compound D7],9,5,0,3,0
